Structures can show the parent of a compound that is named as a salt.
These molecules were tested on activity of 200 ng/mL of NGF (NXF promoter-driven luciferase in PC12 cells) (assay: Luciferase reporter assay (NXF promoter) in PC12 cells: potentiation of NGF activity). Conditions: Test Example 1, relative luciferase activity vs 200 ng/mL NGF alone, overnight (approx. 16 hours).
Format: cell-based, rat
Set-up: key: +: Showed relatively weak potentiation (potentiation only exhibited at 10 μM); ++: Showed potentiation; +++: Showed particularly strong potentiation (2-fold or greater potentiation of the activity of 200 ng/mL of NGF at 1 μM)
Method: The forward primer 5′-[…]-3′ and the reverse primer 5′-[…]-3′ were prepared as the PCR primers according to the sequence information for the NXF gene genome sequence (Accession Nos. AB054577 and NC—000085), and the PCR method was used to isolate from approximately 5 kbp upstream from the translated region of the NXF gene promoter portion to the vicinity of the transcription start site. For this, 1 μg of mouse genomic DNA (Takara) was used as the template, and the 2-step PCR reaction was carried out for 35 cycles, the conditions for which were 95° C./1 m in the denaturing step, and 68° C./8 m in the annealing and extension steps, to obtain the PCR product. The NXF promoter fragment was inserted into the SmaI site of the pGL3 Basic vector (Promega) in the upstream of luciferase gene to prepare a reporter plasmid that would express the luciferase enzyme driven by the NXF promoter.
PC12 cells (available from the ATCC) were cultured using RPMI medium (GIBCO-BRL) with 5% FCS (GIBCO-BR) and 15% horse serum (GIBCO-BRL) added, and 1 mM in sodium pyruvate (GIBCO-BRL), at 37° C. in the presence of 5% CO2. After transfection in 10^6 of these PC12 cells for 2 days with 12 μg of the above-described reporter plasmid and 1 μg of pRC/RSV vector (Invitrogen) using the Lipofectamine 2000 reagent (Invitrogen), the medium was exchanged for fresh medium containing 40 mg/L of geneticin sulfate (GIBCO), and this was cultured continuously. Culturing was continued for approximately 1 month with medium exchange of the cultured medium containing 40 mg/L of geneticin sulfate (GIBCO) every several days, with the result that multiple colonies of the obtained cells were picked up. Among these, one of the colonies that induced luciferase activity in the presence of 40 ng/mL of NGF (Wako Pure Chemicals) was selected and used for the cells to evaluate the activity of the compounds below.
These cells were set up in 96-well plates with 80% confluence, and the luciferase reporter assay was conducted using the Promega Steady Glo luciferase assay kit. The procedure was carried out overnight (approx. 16 hours) using culture medium containing the compound, and the Steady Glo substrate solution was added to the cells in half-diluted in PBS after removal of all remaining medium containing the compound. After this was allowed to stand for 30 minutes, the respective quantity of light produced was measured with a luminometer (Envision Perkin Elmer).
The activity of the compounds for evaluation was measured as the potentiation of the activity of 200 ng/mL of NGF. For the experiment control wells, the negative control well had medium containing only a final concentration of 0.1% DMSO, the positive control well had medium containing a saturation concentration of NGF. In addition, a test well was set up containing 0.1% DMSO with 200 ng/mL of NGF added corresponding to a 0 compound concentration. When its luciferase activity was taken as a standard, the relative luciferase activity could be calculated for the test wells to which the compound solution (dissolved in DMSO and prepared to have a final DMSO concentration of 0.1%) had been added in addition to the 200 ng/mL of NGF, to find the potentiation of the activity of 200 ng/mL of NGF due to that compound.

SMILES	Activity (potentiation of NGF activity)
Cc1nc2cc(-c3nc4ccccc4o3)ccc2n1C(C)(C)C [Ex. 29, 5-(benzoxazol-2-yl)-2-methyl-1-tert-butylbenzimidazole]	++
COCc1nc2cc(-c3nc4ccccc4s3)ccc2n1C1CCOCC1 [Ex. 6, 5-(benzothiazol-2-yl)-2-methoxymethyl-1-(tetrahydropyran-4-yl)benzimidazole]	++
FC(F)(F)c1nc2cc(-c3nc4ccccc4o3)ccc2n1C1CCOCC1 [Ex. 27, 5-(benzoxazol-2-yl)-1-(tetrahydropyran-4-yl)-2-trifluoromethylbenzimidazole]	++
COc1ccc(-n2c(C)nc3cc(-c4nc5ccccc5o4)ccc32)cc1 [Ex. 15, 5-(benzoxazol-2-yl)-1-(4-methoxyphenyl)-2-methylbenzimidazole]	+
Cc1nc2cc(-c3nc4ccccc4o3)ccc2n1-c1ccccc1 [Syn. Ex. 3, 5-(benzoxazol-2-yl)-2-methyl-1-phenylbenzimidazole]	++
CN(C)Cc1nc2cc(-c3nc4ccccc4o3)ccc2n1C1CCOCC1 [Ex. 14, 5-(benzoxazol-2-yl)-2-(N,N-dimethylaminomethyl)-1-(tetrahydropyran-4-yl)benzimidazole]	+
c1cncc(-c2nc3cc(-c4nc5ccccc5o4)ccc3n2C2CCOCC2)c1 [Ex. 24, 5-(benzoxazol-2-yl)-2-(3-pyridyl)-1-(tetrahydropyran-4-yl)benzimidazole]	++
Cc1nc2cc(-c3cc4ccccc4o3)ccc2n1C1CCOCC1 [Ex. 19, 5-(benzofuran-2-yl)-2-methyl-1-(tetrahydropyran-4-yl)benzimidazole]	++
COc1cccc(-n2c(C)nc3cc(-c4nc5ccccc5o4)ccc32)c1 [Ex. 31, 5-(benzoxazol-2-yl)-1-(3-methoxyphenyl)-2-methylbenzimidazole]	++
COc1ccccc1-n1c(C)nc2cc(-c3nc4ccccc4o3)ccc21 [Ex. 30, 5-(benzoxazol-2-yl)-1-(2-methoxyphenyl)-2-methylbenzimidazole]	++
c1ccc(-c2nc3cc(-c4nc5ccccc5o4)ccc3n2C2CCOCC2)cc1 [Ex. 25, 5-(benzoxazol-2-yl)-2-phenyl-1-(tetrahydropyran-4-yl)benzimidazole]	++
CN(C)Cc1nc2cc(-c3nc4ccccc4s3)ccc2n1C1CCOCC1 [Ex. 9, 5-(benzothiazol-2-yl)-2-(N,N-dimethylaminomethyl)-1-(tetrahydropyran-4-yl)benzimidazole]	++

Same assay, conditions: Test Example 4, same manner as Test Example 1, relative luciferase activity vs 200 ng/mL NGF alone

SMILES	Activity (potentiation of NGF activity)
CS(=O)(=O)CCc1nc2cc(-c3nc4ccccc4o3)ccc2n1C1CCOCC1 [Ex. 134, 5-(benzoxazol-2-yl)-2-(2-(methylsulfonyl)ethyl)-1-(tetrahydropyran-4-yl)benzimidazole]	++
CC(C)(C)OC(=O)NCc1nc2cc(-c3nc4ccccc4o3)ccc2n1C1CCOCC1 [Ex. 58, 5-(benzoxazol-2-yl)-2-(tert-butoxycarbamidomethyl)-1-(tetrahydropyran-4-yl)benzimidazole]	++
Cc1nc2cc(-c3nc4cc(C5CCCCC5)ccc4o3)ccc2n1C1CCOCC1 [Ex. 72, 5-(5-cyclohexylbenzoxazol-2-yl)-2-methyl-1-(tetrahydropyran-4-yl)benzimidazole]	++
Cc1nc2cc(-c3nc4ccccc4o3)ccc2n1CCN(C)C [Ex. 130]	++
CCOC(=O)Cc1nc2cc(-c3nc4ccccc4o3)ccc2n1C1CCOCC1 [Ex. 86, 5-(benzoxazol-2-yl)-2-(ethoxycarbonylmethyl)-1-(tetrahydropyran-4-yl)benzimidazole]	++
c1ccc(Cc2nc3cc(-c4nc5ccccc5o4)ccc3n2C2CCOCC2)cc1 [Ex. 61, 5-(benzoxazol-2-yl)-2-benzyl-1-(tetrahydropyran-4-yl)benzimidazole]	++
Cc1nc2cc(-c3nc4ccccc4o3)ccc2n1CCC1CCOCC1 [Ex. 83, 5-(benzoxazol-2-yl)-2-methyl-1-(2-(tetrahydropyran-4-yl)ethyl)benzimidazole]	++
NCc1nc2cc(-c3nc4ccccc4o3)ccc2n1C1CCOCC1 [Ex. 67, 2-aminomethyl-5-(benzoxazol-2-yl)-1-(tetrahydropyran-4-yl)benzimidazole hydrochloride]	+
Cc1nc2cc(-c3nc4ccccc4o3)ccc2n1CCCN1CCOCC1 [Ex. 96, 5-(benzoxazol-2-yl)-2-methyl-1-(3-(morpholine-4-yl)propyl)benzimidazole]	++
Cc1nc2cc(-c3nc4cc(C(=O)O)ccc4o3)ccc2n1C1CCOCC1 [Ex. 97, 5-(5-carboxylbenzoxazol-2-yl)-2-methyl-1-(tetrahydropyran-4-yl)benzimidazole]	++
c1ccc(CCc2nc3cc(-c4nc5ccccc5o4)ccc3n2C2CCOCC2)cc1 [Ex. 68, 5-(benzoxazol-2-yl)-2-(2-phenylethyl)-1-(tetrahydropyran-4-yl)benzimidazole]	++
Cc1nc2cc(-c3nc4ccccc4o3)ccc2n1CC(C)C(=O)OC(C)(C)C (centres unmarked) [Ex. 121, 5-(benzoxazol-2-yl)-2-methyl-1-(2-tert-butoxycarbonyl-n-propyl)benzimidazole]	++
Cc1nc2cc(-c3nc4ccccc4o3)ccc2n1CCNC(=O)OC(C)(C)C [Ex. 55, 5-(benzoxazol-2-yl)-1-(2-(tert-butoxycarbonylamino)ethyl)-2-methylbenzimidazole]	++
Cc1nc2cc(-c3nc4ccccc4o3)ccc2n1C(CO)c1ccccc1 (centres unmarked) [Ex. 120, 5-(1-benzoxazol-2-yl)-1-(2-phenylethanol-2-yl)-2-methylbenzimidazole]	++
Cc1nc2cc(-c3nc4ccccc4o3)ccc2n1CCN [Ex. 56, 1-(2-aminoethyl)-5-(benzoxazol-2-yl)-2-methylbenzimidazole hydrochloride]	++
CSCCc1nc2cc(-c3nc4ccccc4o3)ccc2n1C1CCOCC1 [Ex. 133, 5-(benzoxazol-2-yl)-2-(2-(methylthio)ethyl)-1-(tetrahydropyran-4-yl)benzimidazole]	++
Cc1nc2cc(-c3nc4ccccc4o3)ccc2n1CCNC(=O)CCC(=O)O [Ex. 108, 4-oxo-4-(2-(5-(benzoxazol-2-yl)-2-methylbenzimidazol-1-yl)ethyl)aminobutyric acid]	++
CCCn1cnc2cc(-c3nc4cc(Cl)ccc4o3)ccc21 [Ex. 135, 5-(5-chlorobenzoxazol-2-yl)-1-n-propylbenzimidazole]	++
CC(=O)NCc1nc2cc(-c3nc4cc(Cl)ccc4o3)ccc2n1C1CCOCC1 [Ex. 104, 2-acetylaminomethyl-5-(5-chlorobenzoxazol-2-yl)-1-(tetrahydropyran-4-yl)benzimidazole]	++
Cc1nc2cc(-c3nc4ccccc4o3)ccc2n1C(c1ccccc1)c1ccccc1 [Ex. 89, 5-(benzoxazol-2-yl)-2-diphenylmethyl-2-methylbenzimidazole]	++

Source: US8829035B2, “Agent for treatment or prevention of diseases associated with activity of neurotrophic factors” (Sumitomo Chemical Company, Limited, priority 2009, dated 2014)
